“Also recorded” adds a separate entry of the source.
Test system: microorganisms
Experiment: Targeting peptide binding to target microorganisms (Tables 3, 10, 12)
Details: preferably 1x PBS; for Target(s) (microorganism bound by the targeting peptide): peptide binding in aqueous buffers that varied with peptide solubility; for Target(s): microorganism(s) the targeting peptide binds, binding in aqueous buffers that varied with peptide solubility

| Substance | Target(s) (microorganism bound by the targeting peptide) | Target(s) |
| --- | --- | --- |
| 1T-99 (MKAWLGQ; Peptide with targeting and/or antimicrobial activity) | S. gordonii; also recorded: S. mitis; also recorded: S. mutans; also recorded: S. oralis; also recorded: S. sanguinis | – |
| 1T-100 (LDPLEPRIAPPGDRSHQGAPACHRDPLRGRSARDAER; Peptide with targeting and/or antimicrobial activity) | S. gordonii; also recorded: S. mitis; also recorded: S. mutans | – |
| 1T-101 (RLRVGRATDLPLTSFAVGVVRNLPDAPAH; Peptide with targeting and/or antimicrobial activity) | A. naeslundii; also recorded: P. gingivalis; also recorded: S. epidermidis; also recorded: S. gordonii; also recorded: S. mitis; also recorded: S. mutans; also recorded: S. oralis; also recorded: S. sanguinis | – |
| 1T-104 (RAVAAHLQGRHHGHQVRRQRHGQR; Peptide with targeting and/or antimicrobial activity) | S. mitis | – |
| 1T-105 (GEGLPPPVLHLPPPRMSGR; Peptide with targeting and/or antimicrobial activity) | S. epidermidis; also recorded: S. gordonii; also recorded: S. mitis; also recorded: S. mutans; also recorded: S. oralis | – |
| 1T-106 (DALRRSRSQGRRHR; Peptide with targeting and/or antimicrobial activity) | S. gordonii; also recorded: S. mitis; also recorded: S. mutans; also recorded: S. oralis; also recorded: S. salivarious | – |
| 1T-107 (SPVPRFTAVGGVSRGSP; Peptide with targeting and/or antimicrobial activity) | A. naeslundii; also recorded: S. epidermidis; also recorded: S. gordonii; also recorded: S. mitis; also recorded: S. mutans; also recorded: S. oralis; also recorded: S. salivarious; also recorded: S. sanguinis | – |
| 1T-108 (WGPLGPERPLW; Peptide with targeting and/or antimicrobial activity) | S. gordonii; also recorded: S. mitis; also recorded: S. mutans; also recorded: S. oralis; also recorded: S. salivarious; also recorded: S. sanguinis | – |
| 1T-109 (VTTNVRQGAGS; Peptide with targeting and/or antimicrobial activity) | A. naeslundii; also recorded: S. epidermidis; also recorded: S. gordonii; also recorded: S. mitis; also recorded: S. mutans; also recorded: S. oralis; also recorded: S. salivarious; also recorded: S. sanguinis | – |
| 1T-110 (LAAKTAVCVGRAFM; Peptide with targeting and/or antimicrobial activity) | A. naeslundii; also recorded: P. gingivalis; also recorded: S. epidermidis; also recorded: S. gordonii; also recorded: S. mitis; also recorded: S. mutans; also recorded: S. oralis; also recorded: S. sanguinis | – |
| 1T-112 (SDNDGKLILGTSQ; Peptide with targeting and/or antimicrobial activity) | S. gordonii | – |
| 1T-113 (HGAHQRTGQRLHHHRGRTVSGCRQNPVAGVDPDEHR; Peptide with targeting and/or antimicrobial activity) | S. mitis | – |
| 1T-114 (RQAPGPGLVTITAACSAPGSRSR; Peptide with targeting and/or antimicrobial activity) | A. naeslundii; also recorded: P. gingivalis; also recorded: S. epidermidis; also recorded: S. gordonii; also recorded: S. mitis; also recorded: S. mutans; also recorded: S. oralis; also recorded: S. sanguinis | – |
| 1T-117 (GPGVVGPAPFSRLPAHALNL; Peptide with targeting and/or antimicrobial activity) | S. mutans | – |
| 1T-119 (SPATQKAPTRAQPSRAPVQDCGDGRPTAAPDDVERLSPR; Peptide with targeting and/or antimicrobial activity) | S. gordonii; also recorded: S. mitis; also recorded: S. mutans; also recorded: S. oralis | – |
| 1T-121 (FAKETGFGIGGAQEGWWIIADIYGPNPF; Peptide with targeting and/or antimicrobial activity) | S. gordonii; also recorded: S. mitis; also recorded: S. mutans; also recorded: S. oralis; also recorded: S. salivarious; also recorded: S. sanguinis | – |
| 1T-122 (GAIPDPVTHRVDWEEDHQTRPSR; Peptide with targeting and/or antimicrobial activity) | S. mitis | – |
| 1T-123 (LVRRNAVAGRSDGLAGAEQLDLVRLQGVL; Peptide with targeting and/or antimicrobial activity) | S. gordonii | – |
| 1T-124 (LFDERNKIA; Peptide with targeting and/or antimicrobial activity) | S. mitis; also recorded: S. mutans; also recorded: S. oralis | – |
| 1T-125 (DAITGGNPPLSDTDGLRP; Peptide with targeting and/or antimicrobial activity) | S. epidermidis; also recorded: S. gordonii; also recorded: S. mutans; also recorded: S. oralis | – |
| 1T-126 (QGLARPVLRRIPL; Peptide with targeting and/or antimicrobial activity) | S. gordonii; also recorded: S. mitis; also recorded: S. mutans | – |
| 1T-139 (AVAGAAVGALLGNDARSTAVGAAIGGALGAGAGELTKNK; Peptide with targeting and/or antimicrobial activity) | A. naeslundii; also recorded: S. gordonii; also recorded: S. mitis; also recorded: S. mutans; also recorded: S. oralis | – |

| Substance | Target(s) (microorganism bound by the targeting peptide) | Target(s) |
| --- | --- | --- |
| 1T-141 (KKFIILLFILVQGLIFSATKTLSDIIAL; Peptide with targeting and/or antimicrobial activity) | F. nucleatum; also recorded: P. gingivalis; also recorded: S. epidermidis; also recorded: S. gordonii; also recorded: S. mitis; also recorded: S. mutans; also recorded: S. oralis; also recorded: S. sanguinis | – |
| 1T-145 (VEAGKRNISLENIEKISKGLGISISELFKYIEEGEDKIG; Peptide with targeting and/or antimicrobial activity) | S. mitis; also recorded: S. mutans; also recorded: S. oralis | – |
| 1T-154 (YFSFLEIVGMARR; Peptide with targeting and/or antimicrobial activity) | P. gingivalis | – |
| 1T-159 (IFSLHHFALICSEMGTFAVSKRAKYKWEVL; Peptide with targeting and/or antimicrobial activity) | P. gingivalis | – |
| 1T-170 (AYGKVFSMDIMLSENDKLIVLRISHHSAWH; Peptide with targeting and/or antimicrobial activity) | P. gingivalis | – |
| 1T-177 (GTNVPTQILGYSREERFDYEPAPEQR; Peptide with targeting and/or antimicrobial activity) | P. gingivalis; also recorded: S. gordonii; also recorded: S. mitis; also recorded: S. mutans; also recorded: S. oralis; also recorded: S. salivarious; also recorded: S. sanguinis | – |
| 1T-185 (HYHFLLEFGFHKGDYLE; Peptide with targeting and/or antimicrobial activity) | A. naeslundii; also recorded: F. nucleatum; also recorded: P. gingivalis; also recorded: T. denticola; also recorded: S. gordonii | S. mitis; also recorded: S. mutans; also recorded: S. oralis; also recorded: S. salivarious; also recorded: S. sanguinis |
| 1T-188 (HRKDVYKK; Peptide with targeting and/or antimicrobial activity) | – | S. sanguinis |
| 1T-192 (ILVLLALQVELDSKFQY; Peptide with targeting and/or antimicrobial activity) | – | S. sanguinis |
| 1T-193 (LMIFDKHANLKYKYGNRSFGVEAIM; Peptide with targeting and/or antimicrobial activity) | – | S. sanguinis |
| 1T-195 (AASGFTYCASNGVWHPY; Peptide with targeting and/or antimicrobial activity) | – | S. mutans |
| 1T-196 (KPEKEKLDTNTLMKVVNKALSLFDRLLIKFGA; Peptide with targeting and/or antimicrobial activity) | – | F. nucleatum; also recorded: S. sanguinis |
| 1T-198 (MPVSKKRYMLSSAYATALGICYGQVATDEKESEITAIPDLLDYLSVEEYLL; Peptide with targeting and/or antimicrobial activity) | – | P. gingivalis; also recorded: S. epidermidis; also recorded: S. gordonii; also recorded: S. mitis; also recorded: S. mutans; also recorded: S. oralis; also recorded: S. sanguinis |
| 1T-199 (RAGRIKKLSQKEAEPFEN; Peptide with targeting and/or antimicrobial activity) | – | S. sanguinis |
| 1T-201 (KRKHENVIVAEEMRVIKN; Peptide with targeting and/or antimicrobial activity) | – | S. sanguinis |
| 1T-207 (SPLEKYGTGSMTALTFLLGCCLLVLSKKSR; Peptide with targeting and/or antimicrobial activity) | – | F. nucleatum; also recorded: S. sanguinis |
| 1T-215 (VCFKDISVFLSPFRGQEVLFCGKAKHSLIYVIGT; Peptide with targeting and/or antimicrobial activity) | – | S. sanguinis |
| 1T-216 (FFLNVIAIRIPHF; Peptide with targeting and/or antimicrobial activity) | – | S. sanguinis |
| 1T-217 (MLSNVLSRSVVSPNVDIPNSMVILSPLLISISNYH; Peptide with targeting and/or antimicrobial activity) | – | F. nucleatum; also recorded: S. sanguinis |
| 1T-218 (KLIFAALGLVFLLIGLRDSRSK; Peptide with targeting and/or antimicrobial activity) | – | F. nucleatum; also recorded: S. sanguinis |
| 1T-219 (RNINVSATFITEKSLV; Peptide with targeting and/or antimicrobial activity) | – | S. sanguinis |

— patent publication US20110039763A1, “TARGETED ANTIMICROBIAL MOIETIES” (C3 JIAN, INC., priority 2009, published 2011)
